From ChEMBL document CHEMBL3885881, “DrugMatrix”

Species: Rattus norvegicus
Experiment: DrugMatrix - Regimen: Daily Repeat
Assay type: toxicity, organism-based, Sprague-Dawley
Parameters: regimen Daily Repeat, gender Male, age 6-8 weeks
Details: in vivo, po, route oral GAVAGE, vehicle .5 % CMC
[1] = 83 mg/kg, 72 h, tissue Blood, dose level High, time 3 day
[2] = 83 mg/kg, 72 h, tissue Plasma, dose level High, time 3 day
[3] = 83 mg/kg, 120 h, tissue Blood, dose level High, time 5 day
[4] = 83 mg/kg, 120 h, tissue Plasma, dose level High, time 5 day
[5] = […], 72 h, tissue Blood, dose 8.3 mg/Kg, dose level Low, time 3 day
[6] = […], 72 h, tissue Plasma, dose 8.3 mg/Kg, dose level Low, time 3 day
[7] = […], 120 h, tissue Blood, dose 8.3 mg/Kg, dose level Low, time 5 day
[8] = […], 120 h, tissue Plasma, dose 8.3 mg/Kg, dose level Low, time 5 day

Substance: SODIUM ORTHOVANAD
- ABSOLUTE BASOPHIL [1]: 0 CELLS/uL
- ABSOLUTE EOSINOPHIL [1]: 49.33 CELLS/uL
- ABSOLUTE LYMPHOCYTE [1]: 13060 CELLS/uL
- ABSOLUTE MONOCYTE [1]: 206 CELLS/uL
- ABSOLUTE SEGMENTED NEUTROPHIL [1]: 2051.33 CELLS/uL
- BASOPHIL [1]: 0%
- EOSINOPHIL [1]: 0.33%
- ERYTHROCYTE COUNT [1]: 5.99 x10E6/uL
- LEUKOCYTE COUNT [1]: 15.37 x10E3/uL
- LYMPHOCYTE [1]: 85%
- MEAN CORPUSCULAR HEMOGLOBIN [1]: 23.17 pg
- MEAN CORPUSCULAR HEMOGLOBIN CONCENTRATION [1]: 37.8 G/DL
- NEUTROPHIL [1]: 13.33%
- NUCLEATED RED BLOOD CELLS [1]: 0.67 /100WBC
- PLATELET COUNT [1]: 1409 x10E3/uL
- ALANINE AMINOTRANSFERASE [2]: 51.33 u/L
- ALKALINE PHOSPHATASE [2]: 333.67 u/L
- ASPARTATE AMINOTRANSFERASE [2]: 81.67 u/L
- BLOOD UREA NITROGEN [2]: 13.33 mg/dL
- CARBON DIOXIDE [2]: 16.67 mmol/L
- CHOLESTEROL [2]: 69 mg/dL
- CREATINE PHOSPHOKINASE [2]: 309.33 u/L
- CREATININE [2]: 0.2 mg/dL
- LACTATE DEHYDROGENASE [2]: 147.67 u/L
- LIPASE [2]: 9 u/L
- PHOSPHORUS [2]: 10.33 mg/dL
- POTASSIUM [2]: 6.71 MEQ/L
- SODIUM [2]: 146.67 MEQ/L
- TOTAL BILIRUBIN [2]: 0.27 mg/dL
- TOTAL PROTEIN [2]: 5.43 G/DL
- URIC ACID [2]: 1.8 mg/dL
- ABSOLUTE BASOPHIL [3]: 0 CELLS/uL
- ABSOLUTE EOSINOPHIL [3]: 42.5 CELLS/uL
- ABSOLUTE LYMPHOCYTE [3]: 9180 CELLS/uL
- ABSOLUTE MONOCYTE [3]: 133 CELLS/uL
- ABSOLUTE SEGMENTED NEUTROPHIL [3]: 1544.5 CELLS/uL
- BASOPHIL [3]: 0%
- EOSINOPHIL [3]: 0.5%
- ERYTHROCYTE COUNT [3]: 6.11 x10E6/uL
- HEMATOCRIT [3]: 36.85%
- HEMOGLOBIN [3]: 13.8 G/DL
- LEUKOCYTE COUNT [3]: 10.9 x10E3/uL
- LYMPHOCYTE [3]: 84%
- MEAN CORPUSCULAR HEMOGLOBIN [3]: 22.65 pg
- MEAN CORPUSCULAR HEMOGLOBIN CONCENTRATION [3]: 37.45 G/DL
- MEAN CORPUSCULAR VOLUME [3]: 60.35 fL
- MONOCYTE [3]: 1%
- NEUTROPHIL [3]: 14.5%
- NUCLEATED RED BLOOD CELLS [3]: 0 /100WBC
- PLATELET COUNT [3]: 1518 x10E3/uL
- ALANINE AMINOTRANSFERASE [4]: 55 u/L
- ALBUMIN [4]: 4.2 G/DL
- ALKALINE PHOSPHATASE [4]: 268.5 u/L
- ASPARTATE AMINOTRANSFERASE [4]: 90 u/L
- BLOOD UREA NITROGEN [4]: 15.5 mg/dL
- CARBON DIOXIDE [4]: 32.5 mmol/L
- CHOLESTEROL [4]: 82 mg/dL
- CREATINE PHOSPHOKINASE [4]: 294.5 u/L
- CREATININE [4]: 0.22 mg/dL
- LACTATE DEHYDROGENASE [4]: 221.5 u/L
- LIPASE [4]: 14 u/L
- POTASSIUM [4]: 6.81 MEQ/L
- SODIUM [4]: 147.35 MEQ/L
- TOTAL BILIRUBIN [4]: 0.15 mg/dL
- TOTAL PROTEIN [4]: 6 G/DL
- URIC ACID [4]: 1.65 mg/dL
- ABSOLUTE BASOPHIL [5]: 0 CELLS/uL
- ABSOLUTE EOSINOPHIL [5]: 0 CELLS/uL
- ABSOLUTE MONOCYTE [5]: 61 CELLS/uL
- ABSOLUTE SEGMENTED NEUTROPHIL [5]: 1531 CELLS/uL
- BASOPHIL [5]: 0%
- EOSINOPHIL [5]: 0%
- ERYTHROCYTE COUNT [5]: 5.33 x10E6/uL
- HEMATOCRIT [5]: 34.23%
- HEMOGLOBIN [5]: 13.1 G/DL
- LEUKOCYTE COUNT [5]: 14.33 x10E3/uL
- LYMPHOCYTE [5]: 89%
- MEAN CORPUSCULAR HEMOGLOBIN [5]: 24.6 pg
- MEAN CORPUSCULAR HEMOGLOBIN CONCENTRATION [5]: 38.27 G/DL
- MONOCYTE [5]: 0.33%
- NEUTROPHIL [5]: 10.67%
- NUCLEATED RED BLOOD CELLS [5]: 0 /100WBC
- PLATELET COUNT [5]: 1191.67 x10E3/uL
- ALANINE AMINOTRANSFERASE [6]: 51 u/L
- ALBUMIN [6]: 4.1 G/DL
- ALKALINE PHOSPHATASE [6]: 345.67 u/L
- ASPARTATE AMINOTRANSFERASE [6]: 90.67 u/L
- BLOOD UREA NITROGEN [6]: 12.67 mg/dL
- CARBON DIOXIDE [6]: 22 mmol/L
- CHLORIDE [6]: 108.67 MEQ/L
- CHOLESTEROL [6]: 71.67 mg/dL
- CREATINE PHOSPHOKINASE [6]: 295.67 u/L
- CREATININE [6]: 0.21 mg/dL
- LACTATE DEHYDROGENASE [6]: 309 u/L
- LIPASE [6]: 11 u/L
- PHOSPHORUS [6]: 11.73 mg/dL
- POTASSIUM [6]: 6.03 MEQ/L
- TOTAL BILIRUBIN [6]: 0.2 mg/dL
- TOTAL PROTEIN [6]: 5.73 G/DL
- URIC ACID [6]: 1.3 mg/dL
- ABSOLUTE BASOPHIL [7]: 0 CELLS/uL
- ABSOLUTE EOSINOPHIL [7]: 0 CELLS/uL
- ABSOLUTE LYMPHOCYTE [7]: 10049 CELLS/uL
- ABSOLUTE MONOCYTE [7]: 38 CELLS/uL
- ABSOLUTE SEGMENTED NEUTROPHIL [7]: 579.67 CELLS/uL
- BASOPHIL [7]: 0%
- EOSINOPHIL [7]: 0%
- ERYTHROCYTE COUNT [7]: 5.74 x10E6/uL
- HEMATOCRIT [7]: 36.57%
- LEUKOCYTE COUNT [7]: 10.67 x10E3/uL
- LYMPHOCYTE [7]: 94.33%
- MEAN CORPUSCULAR HEMOGLOBIN [7]: 23.4 pg
- MEAN CORPUSCULAR HEMOGLOBIN CONCENTRATION [7]: 36.67 G/DL
- MONOCYTE [7]: 0.33%
- NEUTROPHIL [7]: 5.33%
- NUCLEATED RED BLOOD CELLS [7]: 0.33 /100WBC
- PLATELET COUNT [7]: 1343.67 x10E3/uL
- ALANINE AMINOTRANSFERASE [8]: 63.33 u/L
- ALKALINE PHOSPHATASE [8]: 318 u/L
- ASPARTATE AMINOTRANSFERASE [8]: 80 u/L
- CARBON DIOXIDE [8]: 24 mmol/L
- CHOLESTEROL [8]: 69.33 mg/dL
- CREATINE PHOSPHOKINASE [8]: 250 u/L
- CREATININE [8]: 0.18 mg/dL
- GLUCOSE [8]: 176.33 mg/dL
- LACTATE DEHYDROGENASE [8]: 93.33 u/L
- POTASSIUM [8]: 6.41 MEQ/L
- SODIUM [8]: 147.03 MEQ/L
- TOTAL BILIRUBIN [8]: 0.27 mg/dL
- TOTAL PROTEIN [8]: 6.2 G/DL
- URIC ACID [8]: 2.1 mg/dL
